Here are results for four compounds from patent publication US20150307549A1, “AGENT FOR PREVENTING ARTERIOSCLEROSIS, AGENT FOR SUPPRESSING VASCULAR INTIMAL THICKENING AND AGENT FOR IMPROVING VASCULAR ENDOTHELIAL FUNCTION” (CALPIS Co., LTD, priority 2006, published 2015).

In experiment [1] the test system is thoracic aorta ring of Wistar rats. Description: Endothelium-dependent vasodilator response of thoracic aorta ring of L-NAME-treated rats (Magnus apparatus). In kind it is in vivo, rat. Particulars: for Degree of vasodilation compared to the group given only L-NAME (in words): given together with L-NAME in drinking water for one week. Here is the method: Wistar rats (7 weeks of age, male) as the test animals were acclimatized for one week. A nitric oxide synthesis inhibitor, NG-nitro-L-arginine methyl ester hydrochloride (L-NAME, manufactured by SIGMA-ALDRICH CORP.) was dissolved in drinking water at the concentration of 1 g/L, and similarly, L-NAME and Val-Pro-Pro synthesized above at 1 g/L and 0.3 g/L, respectively, and L-NAME and Ile-Pro-Pro synthesized above at 1 g/L and 0.3 g/L, respectively. The rats were allowed free access to the prepared drinking water for one week. As a control, only the drinking water without L-NAME dissolved therein was given to a non-treatment group.
Then, the rats were subjected to fatal exsanguination under diethyl ether anesthesia. The thoracic aorta was taken out, cut into 2 mm long, and made into an aorta ring. The ring was set in a Magnus apparatus (product name “micro tissue organ bath MTOB-1Z”, manufactured by LABO SUPPORT CO., LTD.) filled with 5 ml of Tyrode's solution (composition: 158.3 mM of NaCl, 4.0 mM of KCl, 2.0 mM of CaCl2, 1.05 mM of MaCl2, 0.42 mM of NaH2PO4, 10.0 mM of NaHCO3, and 5.6 mM of glucose; pH 7.4, 37±0.5° C.), and allowed to equilibrate with the resting tension of 2.0 g. The aorta ring was then allowed to constrict with 1 μM of phenylephrine
The degree of vasodilation by the response was determined as a ratio to the constriction with 1 μM of phenylephrine. In the Table, each value is an average of each group of 8 animals.
In the Table, each value is an average of each group of 9 animals.

The next experiment deals with arteriosclerosis. Particulars: administration; Non-patent Publication 5; cited from earlier work.
The subject of a further experiment is ApoE knockout mice. The experiment is described as follows: Confirmatory test for effect of inhibiting vascular intimal thickening (Elastica-van Gieson stain, intima/media area ratio). In kind it is in vivo, mouse. Particulars: 31 weeks; for Inhibition of vascular intimal thickening (in words): Example 2-2, Feeds 1 to 6 versus control; for Degree of Intimal Thickening: intima/media area ratio. The procedure: ApoE knockout mice (6 weeks of age, male, 8 animals for each group) were allowed free access to Feeds 1 to 7 as shown in Table 6 for 31 weeks. Then the thoracic aorta of the mice was taken out, fixed in 10% neutral buffered formalin, and subjected to the Elastica-van Gieson stain. Micrographs of the tissue specimens were scanned into the computer, and the degree of vascular intimal thickening (intima/media area ratio (%)) was calculated using an image processing software (Image J). The values of the degree of thickening shown in the table are the averages of each group.
The confirmatory test for the effect of inhibiting vascular intimal thickening was conducted on each of the solid feeds thus produced in the same way as in Example 2-2, and the degree of intimal thickening (intimal/media area ratio (%)) was calculated. The values of the degree of intimal thickening in the table are the averages of each group.

Consider `COC(=O)[C@@H](N)CCCN=C(N)N[N+](=O)[O-].Cl` [L-NAME, NG-nitro-L-arginine methyl ester hydrochloride, reference compound], for which the Degree of vasodilation in experiment [1] (10 μM acetylcholine, ratio to constriction with 1 μM phenylephrine, drinking water one week: L-NAME 1 g/L, peptide 0.3 g/L, enalapril 0.5 mg/L) came out at 26.1%.
Turning to `CCOC(=O)[C@H](CCc1ccccc1)N[C@@H](C)C(=O)N1CCC[C@H]1C(=O)O` [enalapril, reference compound], in the experiment with arteriosclerosis, the Arteriosclerosis inhibitory effect entry is listed as “does not result in an arteriosclerosis inhibitory effect”. Further, the “Degree of vasodilation compared to the group given only L-NAME (in words)” value in experiment [1] was “no significant difference”.
Take Ile-Pro-Pro: in the experiment on ApoE knockout mice, the “Inhibition of vascular intimal thickening (in words)” value is given as “inhibited vascular intimal thickening concentration-dependently”. The “Degree of Intimal Thickening” value with ApoE knockout mice (Feed 3: 0.0017 wt % in feed (Ile-Pro-Pro 17.1 mg/kg feed)) amounted to 25.3%; in the experiment with ApoE knockout mice (Feed 4: 0.0170 wt % in feed (Ile-Pro-Pro 171.0 mg/kg feed)), 20.5%. Further, in experiment [1], the “Degree of vasodilation compared to the group given only L-NAME (in words)” value is reported as “significantly higher”.
In the case of Val-Pro-Pro, the “Inhibition of vascular intimal thickening (in words)” value in the experiment with ApoE knockout mice was “inhibited vascular intimal thickening concentration-dependently”. Also, the “Degree of Intimal Thickening” value in the experiment on ApoE knockout mice (Feed 1: 0.0034 wt % in feed (Val-Pro-Pro 34.1 mg/kg feed)) worked out at 21.8%; with ApoE knockout mice (Feed 2: 0.0340 wt % in feed (Val-Pro-Pro 341.0 mg/kg feed)), 18.7%. Also, in experiment [1], the “Degree of vasodilation compared to the group given only L-NAME (in words)” value is given as “significantly higher”.
